{
  "source": "ChEMBL document CHEMBL5154816",
  "about": "“Structure-Based Discovery and Optimization of Furo[3,2-c]pyridin-4(5H)-one Derivatives as Potent and Second Bromodomain (BD2)-Selective Bromo and Extra Terminal Domain (BET) Inhibitors” (J Med Chem, 2022)",
  "data": [
    {"organism": "Homo sapiens", "assay": "Selectivity index, ratio of IC50 for BRD4 BD1 (unknown origin) to IC50 of BRD4 BD2 (unknown origin)", "conditions": "not given", "values": [
      {"smiles": "Cc1cc(F)cc(C)c1Oc1ccc(C(C)(C)O)cc1-c1cn(C)c(=O)c2cc(-c3cnc(C4CC4)[nH]3)oc12", "Ratio IC50": 275},
      {"smiles": "Cc1cc(F)cc(C)c1Oc1ccc(C(C)(C)O)cc1-c1cn(C)c(=O)c2cc(-c3cnc(C4CCCCC4)[nH]3)oc12", "Ratio IC50": 226},
      {"smiles": "Cc1cc(F)cc(C)c1Oc1ccc(C(C)(C)O)cc1-c1cn(C)c(=O)c2cc(-c3cnc(C4CCC4)[nH]3)oc12", "Ratio IC50": 294}
    ]},
    {"target": "Transcription initiation factor TFIID subunit 1 (Homo sapiens) (UniProt P21675)", "assay": "Binding affinity to TAF1 BD2 (unknown origin) assessed as change in melting temperature at 100 uM incubated for 30 mins by thermal shift assay", "conditions": "not given", "units": {"ΔTm": "°C"}, "values": [
      {"smiles": "Cc1cc(F)cc(C)c1Oc1ccc(C(C)(C)O)cc1-c1cn(C)c(=O)c2cc(-c3cnc(C4CC4)[nH]3)oc12", "ΔTm": -1.25},
      {"smiles": "Cc1cc(F)cc(C)c1Oc1ccc(C(C)(C)O)cc1-c1cn(C)c(=O)c2cc(-c3cnc(C4CCCCC4)[nH]3)oc12", "ΔTm": -1},
      {"smiles": "Cc1cc(F)cc(C)c1Oc1ccc(C(C)(C)O)cc1-c1cn(C)c(=O)c2cc(-c3cnc(C4CCC4)[nH]3)oc12", "ΔTm": -1}
    ]},
    {"target": "Chromatin remodeling regulator CECR2 (Homo sapiens) (UniProt Q9BXF3)", "sequence (Q9BXF3 whole entry, looked up)": "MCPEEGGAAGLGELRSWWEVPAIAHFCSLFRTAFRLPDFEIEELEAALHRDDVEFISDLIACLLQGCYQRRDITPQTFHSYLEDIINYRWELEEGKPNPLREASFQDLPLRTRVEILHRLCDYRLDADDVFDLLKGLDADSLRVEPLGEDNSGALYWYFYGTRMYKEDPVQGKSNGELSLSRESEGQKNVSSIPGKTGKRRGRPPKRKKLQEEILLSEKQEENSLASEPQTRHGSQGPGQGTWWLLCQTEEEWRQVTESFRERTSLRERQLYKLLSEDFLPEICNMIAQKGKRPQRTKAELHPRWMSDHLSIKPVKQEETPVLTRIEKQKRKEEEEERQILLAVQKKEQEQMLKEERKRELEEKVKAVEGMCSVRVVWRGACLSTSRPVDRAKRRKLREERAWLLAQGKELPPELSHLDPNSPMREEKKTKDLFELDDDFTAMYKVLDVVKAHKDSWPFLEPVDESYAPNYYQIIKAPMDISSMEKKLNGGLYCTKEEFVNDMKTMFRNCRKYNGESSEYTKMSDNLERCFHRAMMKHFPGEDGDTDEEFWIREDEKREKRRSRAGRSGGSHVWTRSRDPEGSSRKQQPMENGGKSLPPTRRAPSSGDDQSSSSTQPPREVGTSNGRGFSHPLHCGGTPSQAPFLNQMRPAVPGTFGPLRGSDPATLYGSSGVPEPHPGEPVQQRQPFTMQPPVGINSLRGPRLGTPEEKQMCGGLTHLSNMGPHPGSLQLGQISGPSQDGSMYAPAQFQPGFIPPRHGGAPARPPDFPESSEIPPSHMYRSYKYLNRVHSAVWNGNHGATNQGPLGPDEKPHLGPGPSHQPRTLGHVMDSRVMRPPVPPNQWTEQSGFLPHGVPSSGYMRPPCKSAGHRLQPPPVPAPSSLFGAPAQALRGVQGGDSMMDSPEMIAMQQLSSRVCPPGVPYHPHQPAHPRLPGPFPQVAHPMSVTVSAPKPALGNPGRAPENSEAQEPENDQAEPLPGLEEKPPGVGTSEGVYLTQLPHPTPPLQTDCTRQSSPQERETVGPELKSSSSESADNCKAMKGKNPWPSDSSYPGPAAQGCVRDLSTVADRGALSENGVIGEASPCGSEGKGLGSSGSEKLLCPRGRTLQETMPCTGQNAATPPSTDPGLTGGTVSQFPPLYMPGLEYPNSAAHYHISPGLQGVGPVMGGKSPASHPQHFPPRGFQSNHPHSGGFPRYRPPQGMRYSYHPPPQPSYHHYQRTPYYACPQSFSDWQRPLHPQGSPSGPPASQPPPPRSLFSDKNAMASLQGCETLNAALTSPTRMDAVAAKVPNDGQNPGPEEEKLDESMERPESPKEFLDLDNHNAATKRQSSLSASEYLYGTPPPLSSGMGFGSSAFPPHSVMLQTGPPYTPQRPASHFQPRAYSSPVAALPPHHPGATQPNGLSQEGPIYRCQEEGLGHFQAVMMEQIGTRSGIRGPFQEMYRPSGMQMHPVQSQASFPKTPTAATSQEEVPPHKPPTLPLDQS", "assay": "Binding affinity to CECR2 (unknown origin) assessed as change in melting temperature at 100 uM incubated for 30 mins by thermal shift assay", "conditions": "not given", "units": {"ΔTm": "°C"}, "values": [
      {"smiles": "Cc1cc(F)cc(C)c1Oc1ccc(C(C)(C)O)cc1-c1cn(C)c(=O)c2cc(-c3cnc(C4CC4)[nH]3)oc12", "ΔTm": 0},
      {"smiles": "Cc1cc(F)cc(C)c1Oc1ccc(C(C)(C)O)cc1-c1cn(C)c(=O)c2cc(-c3cnc(C4CCCCC4)[nH]3)oc12", "ΔTm": -0.25},
      {"smiles": "Cc1cc(F)cc(C)c1Oc1ccc(C(C)(C)O)cc1-c1cn(C)c(=O)c2cc(-c3cnc(C4CCCC4)[nH]3)oc12", "ΔTm": 0},
      {"smiles": "Cc1cc(F)cc(C)c1Oc1ccc(C(C)(C)O)cc1-c1cn(C)c(=O)c2cc(-c3cnc(C4CCC4)[nH]3)oc12", "ΔTm": -0.25}
    ]},
    {"target": "Transcription initiation factor TFIID subunit 1 (Homo sapiens) (UniProt P21675)", "assay": "Binding affinity to TAF1 BD1(unknown origin) assessed as change in melting temperature at 100 uM incubated for 30 mins by thermal shift assay", "conditions": "not given", "units": {"ΔTm": "°C"}, "values": [
      {"smiles": "Cc1cc(F)cc(C)c1Oc1ccc(C(C)(C)O)cc1-c1cn(C)c(=O)c2cc(-c3cnc(C4CC4)[nH]3)oc12", "ΔTm": -1.25},
      {"smiles": "Cc1cc(F)cc(C)c1Oc1ccc(C(C)(C)O)cc1-c1cn(C)c(=O)c2cc(-c3cnc(C4CCCCC4)[nH]3)oc12", "ΔTm": -1.25},
      {"smiles": "Cc1cc(F)cc(C)c1Oc1ccc(C(C)(C)O)cc1-c1cn(C)c(=O)c2cc(-c3cnc(C4CCCC4)[nH]3)oc12", "ΔTm": -1},
      {"smiles": "Cc1cc(F)cc(C)c1Oc1ccc(C(C)(C)O)cc1-c1cn(C)c(=O)c2cc(-c3cnc(C4CCC4)[nH]3)oc12", "ΔTm": -1}
    ]},
    {"target": "SWI/SNF-related matrix-associated actin-dependent regulator of chromatin subfamily A member 2 (Homo sapiens) (UniProt P51531)", "sequence (P51531 whole entry)": "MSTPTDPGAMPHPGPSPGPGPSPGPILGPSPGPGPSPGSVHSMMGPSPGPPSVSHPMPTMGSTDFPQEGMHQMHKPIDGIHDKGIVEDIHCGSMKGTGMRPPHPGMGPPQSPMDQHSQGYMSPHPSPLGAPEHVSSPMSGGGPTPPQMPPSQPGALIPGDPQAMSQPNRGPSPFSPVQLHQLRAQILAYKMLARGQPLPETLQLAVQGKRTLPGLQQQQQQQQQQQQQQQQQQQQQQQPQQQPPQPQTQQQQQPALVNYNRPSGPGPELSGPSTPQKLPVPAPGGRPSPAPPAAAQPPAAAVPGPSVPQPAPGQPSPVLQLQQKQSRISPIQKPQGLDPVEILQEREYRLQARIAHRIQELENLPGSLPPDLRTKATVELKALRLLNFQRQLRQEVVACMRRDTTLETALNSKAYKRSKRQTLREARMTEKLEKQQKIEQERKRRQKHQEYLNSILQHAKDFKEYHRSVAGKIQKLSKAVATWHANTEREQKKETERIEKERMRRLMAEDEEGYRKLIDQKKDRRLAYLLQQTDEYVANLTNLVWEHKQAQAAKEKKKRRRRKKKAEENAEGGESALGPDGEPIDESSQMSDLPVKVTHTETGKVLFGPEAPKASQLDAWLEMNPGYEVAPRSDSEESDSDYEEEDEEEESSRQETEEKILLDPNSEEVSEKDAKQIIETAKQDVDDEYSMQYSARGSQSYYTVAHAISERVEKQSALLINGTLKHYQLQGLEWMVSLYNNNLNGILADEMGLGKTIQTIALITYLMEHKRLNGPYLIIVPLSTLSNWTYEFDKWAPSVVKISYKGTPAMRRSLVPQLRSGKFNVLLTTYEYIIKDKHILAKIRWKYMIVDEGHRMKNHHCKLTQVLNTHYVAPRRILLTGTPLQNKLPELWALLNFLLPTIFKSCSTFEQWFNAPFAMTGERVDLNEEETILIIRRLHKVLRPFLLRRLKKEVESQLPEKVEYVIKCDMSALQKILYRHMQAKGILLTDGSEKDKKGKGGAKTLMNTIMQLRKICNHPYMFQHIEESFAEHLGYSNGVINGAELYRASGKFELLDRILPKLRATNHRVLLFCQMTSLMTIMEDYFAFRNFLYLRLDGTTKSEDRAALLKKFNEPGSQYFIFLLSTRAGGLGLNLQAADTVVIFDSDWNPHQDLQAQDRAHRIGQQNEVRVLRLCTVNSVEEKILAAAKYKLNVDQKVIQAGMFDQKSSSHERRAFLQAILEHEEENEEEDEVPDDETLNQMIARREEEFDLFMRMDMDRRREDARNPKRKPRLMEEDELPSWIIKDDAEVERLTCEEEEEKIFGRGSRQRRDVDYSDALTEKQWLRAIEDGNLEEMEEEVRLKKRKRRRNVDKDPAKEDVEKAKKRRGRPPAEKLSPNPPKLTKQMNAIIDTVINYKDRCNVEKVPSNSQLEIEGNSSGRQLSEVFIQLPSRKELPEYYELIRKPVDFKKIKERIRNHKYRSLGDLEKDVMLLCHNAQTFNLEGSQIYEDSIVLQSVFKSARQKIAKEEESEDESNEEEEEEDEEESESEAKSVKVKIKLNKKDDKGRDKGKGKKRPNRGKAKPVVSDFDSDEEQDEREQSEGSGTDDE", "assay": "Binding affinity to SMARCA2A (unknown origin) assessed as change in melting temperature at 100 uM incubated for 30 mins by thermal shift assay", "conditions": "not given", "units": {"ΔTm": "°C"}, "values": [
      {"smiles": "Cc1cc(F)cc(C)c1Oc1ccc(C(C)(C)O)cc1-c1cn(C)c(=O)c2cc(-c3cnc(C4CC4)[nH]3)oc12", "ΔTm": 0.75},
      {"smiles": "Cc1cc(F)cc(C)c1Oc1ccc(C(C)(C)O)cc1-c1cn(C)c(=O)c2cc(-c3cnc(C4CCCCC4)[nH]3)oc12", "ΔTm": 1},
      {"smiles": "Cc1cc(F)cc(C)c1Oc1ccc(C(C)(C)O)cc1-c1cn(C)c(=O)c2cc(-c3cnc(C4CCCC4)[nH]3)oc12", "ΔTm": 1},
      {"smiles": "Cc1cc(F)cc(C)c1Oc1ccc(C(C)(C)O)cc1-c1cn(C)c(=O)c2cc(-c3cnc(C4CCC4)[nH]3)oc12", "ΔTm": 0.5}
    ]},
    {"target": "T1, Transcription intermediary factor 1-alpha (Homo sapiens) (UniProt O15164)", "T1 sequence (whole entry)": "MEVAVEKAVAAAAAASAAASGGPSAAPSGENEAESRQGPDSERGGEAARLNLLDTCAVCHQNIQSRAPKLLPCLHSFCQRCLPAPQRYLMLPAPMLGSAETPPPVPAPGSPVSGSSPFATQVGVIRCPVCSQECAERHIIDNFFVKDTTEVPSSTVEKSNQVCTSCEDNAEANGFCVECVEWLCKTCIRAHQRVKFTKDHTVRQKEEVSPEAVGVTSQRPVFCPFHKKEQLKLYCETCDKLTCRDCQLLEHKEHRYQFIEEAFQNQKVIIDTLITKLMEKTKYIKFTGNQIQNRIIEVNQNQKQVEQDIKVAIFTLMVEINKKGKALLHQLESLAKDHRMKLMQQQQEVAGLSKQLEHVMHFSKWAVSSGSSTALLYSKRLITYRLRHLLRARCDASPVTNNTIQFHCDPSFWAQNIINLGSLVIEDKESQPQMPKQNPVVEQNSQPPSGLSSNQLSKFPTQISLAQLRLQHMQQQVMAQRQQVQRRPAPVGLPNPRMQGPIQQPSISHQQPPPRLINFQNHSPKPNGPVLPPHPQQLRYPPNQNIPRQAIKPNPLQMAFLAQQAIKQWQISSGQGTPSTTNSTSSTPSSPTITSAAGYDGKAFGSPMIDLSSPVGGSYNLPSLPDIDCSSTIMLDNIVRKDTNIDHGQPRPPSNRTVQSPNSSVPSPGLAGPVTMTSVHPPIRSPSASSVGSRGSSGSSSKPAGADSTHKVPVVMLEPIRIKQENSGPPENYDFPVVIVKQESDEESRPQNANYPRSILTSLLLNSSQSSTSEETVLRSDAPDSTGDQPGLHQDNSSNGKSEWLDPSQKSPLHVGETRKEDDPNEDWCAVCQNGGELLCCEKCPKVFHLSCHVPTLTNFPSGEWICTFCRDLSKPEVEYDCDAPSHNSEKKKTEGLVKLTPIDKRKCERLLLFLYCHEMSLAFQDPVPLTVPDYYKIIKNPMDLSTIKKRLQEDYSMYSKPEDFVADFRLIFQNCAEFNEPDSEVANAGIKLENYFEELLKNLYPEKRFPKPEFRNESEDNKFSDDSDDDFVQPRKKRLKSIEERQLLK", "assay": "Binding affinity to TRIM24 (unknown origin) assessed as change in melting temperature at 100 uM incubated for 30 mins by thermal shift assay", "conditions": "not given", "units": {"ΔTm": "°C"}, "values": [
      {"smiles": "Cc1cc(F)cc(C)c1Oc1ccc(C(C)(C)O)cc1-c1cn(C)c(=O)c2cc(-c3cnc(C4CC4)[nH]3)oc12", "ΔTm": -1.5},
      {"smiles": "Cc1cc(F)cc(C)c1Oc1ccc(C(C)(C)O)cc1-c1cn(C)c(=O)c2cc(-c3cnc(C4CCCCC4)[nH]3)oc12", "ΔTm": -1},
      {"smiles": "Cc1cc(F)cc(C)c1Oc1ccc(C(C)(C)O)cc1-c1cn(C)c(=O)c2cc(-c3cnc(C4CCCC4)[nH]3)oc12", "ΔTm": -1},
      {"smiles": "Cc1cc(F)cc(C)c1Oc1ccc(C(C)(C)O)cc1-c1cn(C)c(=O)c2cc(-c3cnc(C4CCC4)[nH]3)oc12", "ΔTm": -1.25}
    ]},
    {"target": "Bromodomain-containing protein 4 (Homo sapiens, UniProt O60885)", "conditions": "dose 100.0 µM, time 30.0 min", "units": {"ΔTm": "°C"}, "values": [
      {"smiles": "Cc1cc(F)cc(C)c1Oc1ccc(C(C)(C)O)cc1-c1cn(C)c(=O)c2cc(-c3cnc(C4CC4)[nH]3)oc12", "ΔTm": 5.25},
      {"smiles": "Cc1cc(F)cc(C)c1Oc1ccc(C(C)(C)O)cc1-c1cn(C)c(=O)c2cc(-c3cnc(C4CCCCC4)[nH]3)oc12", "ΔTm": 2.75},
      {"smiles": "Cc1cc(F)cc(C)c1Oc1ccc(C(C)(C)O)cc1-c1cn(C)c(=O)c2cc(-c3cnc(C4CCC4)[nH]3)oc12", "ΔTm": 5.5}
    ]},
    {"target": "Histone acetyltransferase KAT2B (Homo sapiens) (UniProt Q92831)", "sequence (Q92831 whole entry, looked up)": "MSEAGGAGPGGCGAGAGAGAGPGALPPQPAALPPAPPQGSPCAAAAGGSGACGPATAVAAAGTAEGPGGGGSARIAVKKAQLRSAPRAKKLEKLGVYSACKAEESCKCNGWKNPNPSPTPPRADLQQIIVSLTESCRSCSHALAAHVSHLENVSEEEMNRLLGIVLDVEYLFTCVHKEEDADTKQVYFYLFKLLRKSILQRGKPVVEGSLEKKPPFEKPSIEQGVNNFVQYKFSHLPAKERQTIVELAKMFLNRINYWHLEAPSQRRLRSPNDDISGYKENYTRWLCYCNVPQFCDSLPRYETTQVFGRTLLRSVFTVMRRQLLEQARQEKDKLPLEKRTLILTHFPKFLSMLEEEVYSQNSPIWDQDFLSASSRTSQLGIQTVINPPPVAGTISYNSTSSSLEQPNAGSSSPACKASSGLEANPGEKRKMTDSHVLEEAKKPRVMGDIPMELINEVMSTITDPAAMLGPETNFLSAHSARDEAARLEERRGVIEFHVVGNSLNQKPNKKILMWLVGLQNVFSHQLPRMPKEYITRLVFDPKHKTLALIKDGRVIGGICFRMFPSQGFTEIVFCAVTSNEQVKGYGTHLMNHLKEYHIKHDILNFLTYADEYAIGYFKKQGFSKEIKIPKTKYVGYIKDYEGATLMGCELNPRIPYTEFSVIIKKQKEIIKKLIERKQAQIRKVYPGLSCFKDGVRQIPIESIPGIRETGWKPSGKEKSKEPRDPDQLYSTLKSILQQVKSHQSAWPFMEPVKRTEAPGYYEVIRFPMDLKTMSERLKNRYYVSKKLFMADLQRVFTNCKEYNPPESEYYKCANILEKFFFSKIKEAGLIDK", "assay": "Binding affinity to PCAF (unknown origin) assessed as change in melting temperature at 100 uM incubated for 30 mins by thermal shift assay", "conditions": "not given", "units": {"ΔTm": "°C"}, "values": [
      {"smiles": "Cc1cc(F)cc(C)c1Oc1ccc(C(C)(C)O)cc1-c1cn(C)c(=O)c2cc(-c3cnc(C4CC4)[nH]3)oc12", "ΔTm": -0.5},
      {"smiles": "Cc1cc(F)cc(C)c1Oc1ccc(C(C)(C)O)cc1-c1cn(C)c(=O)c2cc(-c3cnc(C4CCCCC4)[nH]3)oc12", "ΔTm": 0.25},
      {"smiles": "Cc1cc(F)cc(C)c1Oc1ccc(C(C)(C)O)cc1-c1cn(C)c(=O)c2cc(-c3cnc(C4CCCC4)[nH]3)oc12", "ΔTm": 0},
      {"smiles": "Cc1cc(F)cc(C)c1Oc1ccc(C(C)(C)O)cc1-c1cn(C)c(=O)c2cc(-c3cnc(C4CCC4)[nH]3)oc12", "ΔTm": -1}
    ]},
    {"target": "SWI/SNF-related matrix-associated actin-dependent regulator of chromatin subfamily A member 2 (Homo sapiens) (UniProt P51531)", "assay": "Binding affinity to SMARCA2B (unknown origin) assessed as change in melting temperature at 100 uM incubated for 30 mins by thermal shift assay", "conditions": "not given", "units": {"ΔTm": "°C"}, "values": [
      {"smiles": "Cc1cc(F)cc(C)c1Oc1ccc(C(C)(C)O)cc1-c1cn(C)c(=O)c2cc(-c3cnc(C4CC4)[nH]3)oc12", "ΔTm": -0.25},
      {"smiles": "Cc1cc(F)cc(C)c1Oc1ccc(C(C)(C)O)cc1-c1cn(C)c(=O)c2cc(-c3cnc(C4CCCCC4)[nH]3)oc12", "ΔTm": 1},
      {"smiles": "Cc1cc(F)cc(C)c1Oc1ccc(C(C)(C)O)cc1-c1cn(C)c(=O)c2cc(-c3cnc(C4CCCC4)[nH]3)oc12", "ΔTm": 1},
      {"smiles": "Cc1cc(F)cc(C)c1Oc1ccc(C(C)(C)O)cc1-c1cn(C)c(=O)c2cc(-c3cnc(C4CCC4)[nH]3)oc12", "ΔTm": 0.75}
    ]},
    {"target": "Bromodomain-containing protein 3 (Homo sapiens, UniProt Q15059)", "sequence (Q15059 2-726 limits assumed)": "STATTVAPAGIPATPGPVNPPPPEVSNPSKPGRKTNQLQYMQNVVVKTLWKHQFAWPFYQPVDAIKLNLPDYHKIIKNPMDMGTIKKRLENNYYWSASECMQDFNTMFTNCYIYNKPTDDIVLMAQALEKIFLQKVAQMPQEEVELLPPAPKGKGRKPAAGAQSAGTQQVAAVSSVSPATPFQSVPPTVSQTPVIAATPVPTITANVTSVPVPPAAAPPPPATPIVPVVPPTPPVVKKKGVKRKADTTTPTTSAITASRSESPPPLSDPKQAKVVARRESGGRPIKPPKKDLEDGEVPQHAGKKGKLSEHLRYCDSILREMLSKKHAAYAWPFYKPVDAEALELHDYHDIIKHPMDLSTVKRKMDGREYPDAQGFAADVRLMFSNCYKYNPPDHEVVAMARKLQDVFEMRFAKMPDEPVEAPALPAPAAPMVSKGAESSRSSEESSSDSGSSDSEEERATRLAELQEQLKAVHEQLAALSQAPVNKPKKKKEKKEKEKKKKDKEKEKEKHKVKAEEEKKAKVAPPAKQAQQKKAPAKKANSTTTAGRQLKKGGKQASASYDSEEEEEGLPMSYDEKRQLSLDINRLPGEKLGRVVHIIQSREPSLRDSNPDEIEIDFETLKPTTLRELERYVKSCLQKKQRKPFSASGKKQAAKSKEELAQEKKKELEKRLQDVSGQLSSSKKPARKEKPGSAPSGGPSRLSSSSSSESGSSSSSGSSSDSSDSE", "assay": "Binding affinity to His6-fused BRD3 BD2 (unknown origin) assessed as change in melting temperature at 100 uM incubated for 30 mins by thermal shift assay", "conditions": "not given", "units": {"ΔTm": "°C"}, "values": [
      {"smiles": "Cc1cc(F)cc(C)c1Oc1ccc(C(C)(C)O)cc1-c1cn(C)c(=O)c2cc(-c3cnc(C4CC4)[nH]3)oc12", "ΔTm": 13},
      {"smiles": "Cc1cc(F)cc(C)c1Oc1ccc(C(C)(C)O)cc1-c1cn(C)c(=O)c2cc(-c3cnc(C4CCCCC4)[nH]3)oc12", "ΔTm": 9},
      {"smiles": "Cc1cc(F)cc(C)c1Oc1ccc(C(C)(C)O)cc1-c1cn(C)c(=O)c2cc(-c3cnc(C4CCCC4)[nH]3)oc12", "ΔTm": 11.5},
      {"smiles": "Cc1cc(F)cc(C)c1Oc1ccc(C(C)(C)O)cc1-c1cn(C)c(=O)c2cc(-c3cnc(C4CCC4)[nH]3)oc12", "ΔTm": 12}
    ]}
  ]
}
